Results taken from BindingDB's records for doi:10.1021/jm0200660 (Berlex Biosciences, 2002).
pKi: −log10 of the molar value.

Target: Cationic trypsin (Bos taurus)
Assay: Inhibitory constant against bovine trypsin for general specificity against serine proteases

pKi: < 5.30
Compound: Cc1c(F)c(Oc2cccc(C(=N)N)c2)nc(Oc2cccc(C(N)=O)c2)c1F [3-[6-(3-Carbamimidoyl-phenoxy)-3,5-difluoro-4-methyl-pyridin-2-yloxy]-benzamide]
